Test results taken from PubChem BioAssay (NCI).
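Step 1: Grow cells in 96-well plates. Step 2: Expose to compound for 48 hours at 5 concentrations. Step 3: Interpolate endpoints linearly; if unreached, use highest concentration. Here, GI50 denotes the concentration required for 50% inhibition of growth. TGI denotes the concentration required for complete inhibition of growth.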

Tests used:
Assay in all cases: growth of human tumour cells (NCI), 48 h
DLD-1 colon = system: DLD-1 colon
LXFL 529 NSCLC = system: LXFL 529 NSCLC
XF 498 CNS = system: XF 498 CNS
DMS 114 small cell lung = system: DMS 114 small cell lung
HOP-18 NSCLC = system: HOP-18 NSCLC
M19-MEL melanoma = system: M19-MEL melanoma
KM20L2 colon = system: KM20L2 colon
MDA-N = system: MDA-N
RXF-631 renal = system: RXF-631 renal

Row | Compound | TGI (DLD-1 colon) [µM] | TGI (LXFL 529 NSCLC) [µM] | TGI (XF 498 CNS) [µM] | TGI (DMS 114 small cell lung) [µM] | TGI (HOP-18 NSCLC) [µM] | TGI (M19-MEL melanoma) [µM] | TGI (KM20L2 colon) [µM] | TGI (MDA-N) [µM] | also measured
1 | COC(=O)/C(C#N)=C1\CCC(O)N1 (centres undefined) | > 100 | > 100 | > 100 | > 100 | > 100 | > 100 | > 100 |  | 
2 | CN(C)C(=S)/N=c1\ss/c(=N\C(=S)N(C)C)n1-c1ccc(Cl)c(Cl)c1 |  |  |  | > 100 |  | > 100 | > 100 |  | 
3 | COC(=O)/C(C)=C/[N+](=O)[O-] | 4.16 | 27.9 | 27.5 | 35.3 | 31.9 | 32.6 | 55.5 |  | 
4 | CC1=NN(C(=O)CC(=O)N(C(=O)c2ccccc2Cl)c2ccc(C)cc2)C(=O)C1N=Nc1ccc([N+](=O)[O-])cc1 (centres undefined) | > 66.1 | > 100 | > 100 | > 60.5 | > 100 |  | > 90.1 |  | 
5 | CC(C)CNC(=O)O |  |  |  |  |  |  |  | > 100 | 
6 | [Au+].[Au+].[Au+].[c-]1nccn1Cc1ccccc1.[c-]1nccn1Cc1ccccc1.[c-]1nccn1Cc1ccccc1 | 3.7 | 3.22 | 3.13 | 3.13 | 8.77 | 3.96 | > 73 | 26.6 | GI50 (DLD-1 colon): 1.96 µM; GI50 (LXFL 529 NSCLC): 1.83 µM; GI50 (XF 498 CNS): 1.74 µM; GI50 (DMS 114 small cell lung): 1.65 µM; GI50 (HOP-18 NSCLC): 2.87 µM; GI50 (M19-MEL melanoma): 2.01 µM; GI50 (MDA-N): 11.2 µM; GI50 (KM20L2 colon): 26.9 µM
7 | O=S1OC2(c3ccccc3-c3ccccc32)c2ccccc21 (centres undefined) | > 100 | > 100 | > 100 | > 100 | > 100 | > 100 | > 100 |  | 
8 | Nc1nc(CCl)nc(Nc2ccccc2)n1 | > 100 | 28.9 |  | 36.5 |  | 98.8 | 35.9 |  | 
9 | COc1ccc(OC)c2c(/C=C/c3ccc(N(C)C)cc3)ccnc12 |  |  |  |  |  |  |  | > 10 | 
10 | Cc1cc(NS(=O)(=O)c2ccc(Nc3c4ccccc4nc4c(C(=O)NCCN(C)C)cccc34)cc2)no1 | > 100 | > 100 | > 100 | 14 |  | > 100 | > 100 |  | 
11 | CC(C)CCCC(C)[C@H]1CCC2[C@H]3C(CC[C@@]21C)[C@@]1(C)CCC=C[C@]12C[C@@H]2[C@@H]3O (some centres undefined) | > 100 | > 100 |  | > 100 | > 100 |  | > 100 |  | TGI (RXF-631 renal): > 100 µM
12 | N.N.N.N.[Cl-].[Co+3].[N-]=[N+]=[N-].[N-]=[N+]=[N-] | > 100 | > 100 |  |  |  |  | > 100 |  | GI50 (DLD-1 colon): > 100 µM; GI50 (LXFL 529 NSCLC): > 100 µM; GI50 (KM20L2 colon): > 100 µM
13 | CCCCOC(=O)NC(=O)c1cn(CCCOC(=O)NCCCCCCNC(=O)OCCCn2cc(C(=O)NC(=O)OCCCC)c(=O)[nH]c2=O)c(=O)[nH]c1=O | > 100 | > 100 | 93.1 | > 100 | > 100 | > 100 | > 100 |  | TGI (RXF-631 renal): > 100 µM
14 | COc1ccc2[nH]c3c4c(ccc3c2c1)C(=O)C=CC4=O | 8.78 | 14.8 |  | 27 | 22.7 | 32.7 | 43.1 | 29.7 | 
15 | C=CCSS/C=C/CS(=O)CC=C (centres undefined) |  |  |  |  |  |  |  | 35.9 | 
16 | CC1(C)O/C(=C\c2ccccc2)C(=O)/C(=C/c2ccccc2)O1 | > 100 | > 100 | 54.4 | 48.1 | > 100 | > 100 |  |  | TGI (RXF-631 renal): > 100 µM
17 | COc1cc2c(cc1O)C1Cc3ccc(OC)c(O)c3C(C2)N1C (centres undefined) |  |  |  |  |  |  |  | > 100 | 
18 | CCOC(=N)CC(=O)Nc1cccc(C)c1C | > 100 | > 100 | > 100 |  |  | > 100 | > 100 |  | TGI (RXF-631 renal): > 100 µM
19 | O=c1[nH]cnc2cccc(Cl)c12 |  |  |  |  |  |  |  | > 100 | 
20 | CC(C)OC(=O)NNc1cc(Cl)ccc1Cl |  |  |  |  |  |  |  | > 100 | 
21 | C=CCNC(=O)N(CCC)CCCCC(NC(C)=O)C(=O)NCc1ccccc1 (centres undefined) |  | > 100 | > 100 | > 100 | > 100 | > 100 | > 100 |  | 
